Patent US8163924B2, “Process for preparing a leukotriene antagonist and an intermediate thereof” (Moehs Ibérica, S.L., priority 2007, dated 2012)
Structures can show the parent of a compound that is named as a salt.

Experiment: Solubility of dicyclohexylamine salts: amounts of solvents needed to dissolve each compound at reflux
Type: physicochemical
Conditions: amounts approximate, same quantity of each compound
Excerpt: In particular, the amounts of solvents needed to dissolve each compound at reflux are provided.
The amounts of solvents needed to dissolve the salts are approximate.

CC(=O)c1ccccc1CC[C@@H](SCC1(CC(=O)O)CC1)c1cccc(/C=C/c2ccc3ccc(Cl)cc3n2)c1 [IIa, (R)-(E)-1-(((1-(3-(2-(7-chloro-2-quinolinyl)ethenyl)phenyl)-3-(2-acetylphenyl)propyl)thio)methyl)cyclopropane acetic acid dicyclohexylamine salt]
amount of solvent needed to dissolve the compound at reflux (acetone): 100 volumes acetone | amount of solvent needed to dissolve the compound at reflux (isopropyl acetate): 45 volumes isopropyl acetate

COC(=O)c1ccccc1CC[C@@H](SCC1(CC(=O)O)CC1)c1cccc(/C=C/c2ccc3ccc(Cl)cc3n2)c1 [R = —CO2CH3]
amount of solvent needed to dissolve the compound at reflux (acetone): 50 volumes acetone | amount of solvent needed to dissolve the compound at reflux (isopropyl acetate): 20 volumes isopropyl acetate
